We go through 24 compounds from ChEMBL document CHEMBL1909046, “DrugMatrix in vitro pharmacology data”.

Where a SMILES comes first, the peptide text is derived from it. Bridges are numbered along the chain shown (N, C = ends). [ ]: non-standard residue; d: D form. The star is where a group is joined. Threoninol(2S,3R) = C[C@@H](O)[C@H](CO)N*

Experiment [1] addresses T1, Muscarinic acetylcholine receptor M4 (Homo sapiens, UniProt P08173).
T1 sequence (P08173 whole entry): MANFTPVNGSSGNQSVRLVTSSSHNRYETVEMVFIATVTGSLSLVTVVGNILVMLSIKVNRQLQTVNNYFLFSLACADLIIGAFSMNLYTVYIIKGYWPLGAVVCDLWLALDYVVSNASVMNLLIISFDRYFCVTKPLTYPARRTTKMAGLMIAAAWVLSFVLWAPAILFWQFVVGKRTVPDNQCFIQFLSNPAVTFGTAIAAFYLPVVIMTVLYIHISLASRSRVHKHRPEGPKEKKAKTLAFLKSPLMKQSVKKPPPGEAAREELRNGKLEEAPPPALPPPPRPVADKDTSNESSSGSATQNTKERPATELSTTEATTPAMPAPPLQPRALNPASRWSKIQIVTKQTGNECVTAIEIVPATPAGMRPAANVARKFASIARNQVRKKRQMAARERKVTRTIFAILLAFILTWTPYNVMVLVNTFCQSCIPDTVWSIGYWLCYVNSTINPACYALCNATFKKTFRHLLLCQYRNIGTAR
It counts as cell membranes, CHO-K1, Membrane. To be noted: cho-k1.

The target in experiment [2] is T2, Adenosine receptor A3 (Homo sapiens, UniProt P0DMS8).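 Note: radioligand binding assay with AB-MECA serving as the labeled ligand; in other assays of this panel Not Active means under 50% inhibition at 10 µM.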
T2 sequence (P0DMS8 whole entry): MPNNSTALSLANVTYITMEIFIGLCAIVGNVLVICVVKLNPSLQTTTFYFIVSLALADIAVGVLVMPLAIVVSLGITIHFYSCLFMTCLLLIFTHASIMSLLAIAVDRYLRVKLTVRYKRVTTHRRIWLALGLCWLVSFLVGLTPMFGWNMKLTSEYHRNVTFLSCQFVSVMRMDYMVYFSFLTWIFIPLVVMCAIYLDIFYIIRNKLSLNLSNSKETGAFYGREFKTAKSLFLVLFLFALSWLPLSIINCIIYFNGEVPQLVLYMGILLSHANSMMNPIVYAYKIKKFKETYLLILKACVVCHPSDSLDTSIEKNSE
The experiment is classed as cell membranes, CHO-K1, Membrane.

Experiment [3] has as its target T3, Muscarinic acetylcholine receptor M2 (Homo sapiens, UniProt P08172). Note: in other assays of this panel Not Active means under 50% inhibition at 10 µM.
T3 sequence (P08172 whole entry): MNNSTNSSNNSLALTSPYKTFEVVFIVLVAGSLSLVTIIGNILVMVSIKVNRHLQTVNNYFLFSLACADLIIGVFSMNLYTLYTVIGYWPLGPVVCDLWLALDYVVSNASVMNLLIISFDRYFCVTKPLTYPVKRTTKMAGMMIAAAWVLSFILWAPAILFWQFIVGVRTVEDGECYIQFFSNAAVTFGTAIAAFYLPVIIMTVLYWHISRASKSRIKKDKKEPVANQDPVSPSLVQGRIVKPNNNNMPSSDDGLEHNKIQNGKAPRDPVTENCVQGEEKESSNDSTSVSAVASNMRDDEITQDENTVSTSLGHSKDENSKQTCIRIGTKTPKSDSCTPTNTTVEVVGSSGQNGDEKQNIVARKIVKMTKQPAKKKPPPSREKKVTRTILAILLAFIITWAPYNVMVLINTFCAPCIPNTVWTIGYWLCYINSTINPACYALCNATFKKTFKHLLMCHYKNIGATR
It counts as cell membranes, CHO-K1, Membrane. As to conditions: cho-k1.

For experiment [4], the target named is 5-hydroxytryptamine receptor 1B (Rattus norvegicus, UniProt P28564). It counts as cell membranes, Wistar, Cerebral cortex, Membrane. Note: in other assays of this panel Not Active means under 50% inhibition at 10 µM.
Experiment [5] in a line: DRUGMATRIX: Atrial Natriuretic Factor (ANF) radioligand binding (ligand: [125I] ANF (rat)). The experiment is classed as cell membranes, Cavia porcellus, Dunkin-Hartley, Adrenal gland, Membrane. To be noted: Not Active = under 50% inhibition at 10 µM.

5-hydroxytryptamine receptor 1B, sequence (P28564 whole entry): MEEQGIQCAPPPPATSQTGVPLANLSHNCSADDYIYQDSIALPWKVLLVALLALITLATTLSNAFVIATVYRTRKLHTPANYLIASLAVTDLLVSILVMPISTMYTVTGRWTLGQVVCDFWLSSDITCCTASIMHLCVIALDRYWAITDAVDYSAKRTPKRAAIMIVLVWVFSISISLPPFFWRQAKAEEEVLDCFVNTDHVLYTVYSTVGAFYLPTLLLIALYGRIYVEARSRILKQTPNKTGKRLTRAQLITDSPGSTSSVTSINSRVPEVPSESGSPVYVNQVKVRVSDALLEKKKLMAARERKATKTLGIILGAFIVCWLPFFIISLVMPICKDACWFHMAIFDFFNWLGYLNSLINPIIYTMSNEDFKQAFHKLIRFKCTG

As usually defined, the IC50 is the concentration needed to halve the response being measured. By Ki is commonly meant a measure of affinity in units of concentration, obtained from inhibition or displacement. For the compound `COc1ccccc1C(=O)N1CCC(Cc2ccccc2)CC1`, the IC50 result in experiment [1], in experiment [2] (cho-k1), in experiment [3], in experiment [4] and in experiment [5] was “Not Active” throughout. Besides, the Ki entry in experiment [5] is “Not Active”.
As to `Cc1ccccc1C(=O)N1CCC(Cc2ccccc2)CC1`, the IC50 result in experiment [1], in experiment [2] (cho-k1), in experiment [3], in experiment [4] and in experiment [5] was “Not Active” throughout. In experiment [5], the Ki entry is given as “Not Active”.
Turning to `O=C1CC[C@H](N2C(=O)c3ccccc3C2=O)C(=O)N1`, the half-maximal inhibitory concentration (IC50) result in experiment [1], in experiment [2] (cho-k1), in experiment [3], in experiment [4] and in experiment [5] was “Not Active” in each case. Further, the Ki result in experiment [5] is on record as “Not Active”.
Regarding `N=C(Nc1ccccc1)Nc1ccccc1`, the IC50 result in experiment [1], in experiment [2] (cho-k1), in experiment [3], in experiment [4] and in experiment [5] was “Not Active” in each case. In experiment [5], the Ki result is reported as “Not Active”.
`C[C@@H](O)[C@H](CO)NC(=O)[C@@H]1CSSC[C@H](NC(=O)[C@H](N)Cc2ccccc2)C(=O)N[C@@H](Cc2ccccc2)C(=O)N[C@H](Cc2c[nH]c3ccccc23)C(=O)N[C@@H](CCCCN)C(=O)N[C@@H]([C@@H](C)O)C(=O)N1` (H-[dF]CF[dW]KTC-{Threoninol(2S,3R)}; disulfide 2-7): the IC50 result in experiment [1], in experiment [2] (cho-k1), in experiment [3], in experiment [4] and in experiment [5] was “Not Active” in each case. Moreover, the Ki result in experiment [5] was “Not Active”.
On to `S=C=Nc1cccc2ccccc12` [1-NAPHTHYLISOTHIOCYANATE], for which the concentration for half-maximal inhibition (IC50) entry is “Not Active” in experiment [1]; 6.1 µM in experiment [2] (read-out: IC50); “Not Active” in experiment [3]; “Not Active” in experiment [4]; “Not Active” in experiment [5]. In addition, the inhibition constant (Ki) in experiment [2] (read-out: Ki) was 3.45 µM; in experiment [5], “Not Active”.
With `C[C@](O)(CS(=O)(=O)c1ccc(F)cc1)C(=O)Nc1ccc(C#N)c(C(F)(F)F)c1` [(R)-BICALUTAMIDE], the IC50 entry in experiment [1], in experiment [2] (cho-k1), in experiment [3], in experiment [4] and in experiment [5] was “Not Active” in each case. In addition, the Ki result in experiment [5] is “Not Active”.
Regarding `CCCC(=O)Nc1ccc(OCC(O)CNC(C)C)c(C(C)=O)c1` (configuration not stated) [ACEBUTOLOL], the IC50 result in experiment [1], in experiment [2] (cho-k1), in experiment [3], in experiment [4] and in experiment [5] was “Not Active” in each case. Also, in experiment [5], the Ki entry was “Not Active”.
As to `CC(=O)Nc1ccc(O)cc1` [ACETAMINOPHEN], the IC50 result in experiment [1], in experiment [2] (cho-k1), in experiment [3], in experiment [4] and in experiment [5] was “Not Active” each time. Besides, the inhibition constant Ki result in experiment [5] is reported as “Not Active”.
On to `COc1cc2c(c3oc(=O)c4c(c13)CCC4=O)[C@@H]1C=CO[C@@H]1O2` [AFLATOXIN], for which the IC50 result in experiment [1], in experiment [2] (cho-k1), in experiment [3], in experiment [4] and in experiment [5] was “Not Active” each time. The Ki result in experiment [1], in experiment [2] (cho-k1), in experiment [3], in experiment [4] and in experiment [5] was “Not Active” in each case.
`N=C(N)NC(=O)c1nc(Cl)c(N)nc1N` [AMILORIDE]: the IC50 entry in experiment [1], in experiment [2] (cho-k1), in experiment [3], in experiment [4] and in experiment [5] was “Not Active” in each case. Further, the inhibition constant Ki entry in experiment [5] was “Not Active”.
Turning to `Cc1cc(=O)n(-c2ccccc2)n1C` [ANTIPYRINE], the IC50 entry in experiment [1], in experiment [2] (cho-k1), in experiment [3], in experiment [4] and in experiment [5] was “Not Active” throughout. The Ki entry in experiment [5] was “Not Active”.
Consider `CN1C(=O)COc2c(C(=O)NC3CN4CCC3CC4)cc(Cl)cc21` (configuration not stated) [AZASETRON], for which the IC50 entry in experiment [1], in experiment [2] (cho-k1), in experiment [3], in experiment [4] and in experiment [5] was “Not Active” throughout. Moreover, the inhibition constant (Ki) result in experiment [5] is given as “Not Active”.
Consider `C[C@H]1C[C@H]2[C@@H]3CCC4=CC(=O)C=C[C@]4(C)[C@@]3(Cl)[C@@H](O)C[C@]2(C)[C@@]1(O)C(=O)CO` [BECLOMETHASONE], for which the concentration for half-maximal inhibition (IC50) result in experiment [1], in experiment [2] (cho-k1), in experiment [3], in experiment [4] and in experiment [5] was “Not Active” in each case. In experiment [5], the inhibition constant (Ki) entry is “Not Active”.
Turning to `CCOC(=O)[C@H](CCc1ccccc1)N[C@H]1CCc2ccccc2N(CC(=O)O)C1=O` [BENAZEPRIL], the IC50 entry in experiment [1], in experiment [2] (cho-k1), in experiment [3], in experiment [4] and in experiment [5] was “Not Active” each time. Besides, in experiment [5], the inhibition constant Ki entry is on record as “Not Active”.
With `Nc1c(CC(=O)O)cccc1C(=O)c1ccc(Br)cc1` [BROMFENAC], the IC50 result in experiment [1], in experiment [2] (cho-k1), in experiment [3], in experiment [4] and in experiment [5] was “Not Active” each time. Further, in experiment [5], the Ki result is “Not Active”.
For the compound `CCCCN1CCCCC1C(=O)Nc1c(C)cccc1C.Cl` (configuration not stated) [BUPIVACAINE HYDROCHLORIDE], the 50% inhibitory concentration (IC50) result in experiment [1], in experiment [2] (cho-k1), in experiment [3], in experiment [4] and in experiment [5] was “Not Active” throughout. Further, the Ki entry in experiment [5] is “Not Active”.
With `O=C1CC2(CCCC2)CC(=O)N1CCCCN1CCN(c2ncccn2)CC1` [BUSPIRONE], the IC50 result in experiment [1], in experiment [2] (cho-k1), in experiment [3], in experiment [4] and in experiment [5] was “Not Active” throughout. Also, in experiment [5], the Ki entry was “Not Active”.
Turning to `C[C@@]12C(=O)OC(=O)[C@]1(C)[C@H]1CC[C@@H]2O1` [CANTHARIDIN], the IC50 result in experiment [1], in experiment [2] (cho-k1), in experiment [3], in experiment [4] and in experiment [5] was “Not Active” each time. Further, in experiment [5], the inhibition constant (Ki) entry is on record as “Not Active”.
`O=NN(CCCl)C(=O)NCCCl` [CARMUSTINE]: the half-maximal inhibitory concentration (IC50) entry in experiment [1], in experiment [2] (cho-k1), in experiment [3], in experiment [4] and in experiment [5] was “Not Active” throughout. The inhibition constant (Ki) result in experiment [5] was “Not Active”.
As for `CC1=C(C(=O)O)N2C(=O)[C@@H](NC(=O)[C@H](N)c3ccccc3)[C@H]2SC1` [CEPHALEXIN ANHYDROUS], the half-maximal inhibitory concentration (IC50) entry in experiment [1], in experiment [2] (cho-k1), in experiment [3], in experiment [4] and in experiment [5] was “Not Active” each time. For the same compound, the Ki result in experiment [5] is “Not Active”.
Take `O=C(N[C@H](CO)[C@H](O)c1ccc([N+](=O)[O-])cc1)C(Cl)Cl` [CHLORAMPHENICOL]: the concentration for half-maximal inhibition (IC50) result in experiment [1], in experiment [2] (cho-k1), in experiment [3], in experiment [4] and in experiment [5] was “Not Active” in each case. In addition, in experiment [5], the Ki entry was “Not Active”.
On to `ClC(Cl)Cl` [CHLOROFORM], for which the IC50 entry in experiment [1], in experiment [2] (cho-k1), in experiment [3], in experiment [4] and in experiment [5] was “Not Active” in each case. Also, the inhibitory constant (Ki) result in experiment [5] is recorded as “Not Active”.
As to `OC(CCN1CCCCC1)(c1ccccc1)C1CCCCC1` (configuration not stated) [TRIHEXYPHENIDYL], the 50% inhibitory concentration (IC50) entry in experiment [2] (cho-k1), in experiment [4] and in experiment [5] was “Not Active” throughout. The Ki result in experiment [5] is on record as “Not Active”.
